The text below walks through data of PubChem BioAssay (NCI).

Among the test systems are A549 NSCLC; ACHN renal; EKVX NSCLC; HOP-62 NSCLC; HOP-92 NSCLC; NCI-H23 lung; SF-268 CNS; SF-539 CNS; SK-OV-3 ovarian; SNB-19 CNS.
Holding throughout (assay): growth of human tumour cells (NCI), 48 h

Several values for one entry are separate records, joined by “and”; a condition that tells them apart may be missing. Equal entries are not always repeated.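 These data come from cells grown in 96-well plates and exposed to compound for 48 hours at five concentrations. Here, GI50 denotes the concentration required for 50% inhibition of growth. TGI is the concentration that stops growth completely.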

Take `CCCC#CC(O)(C(=O)OC1CCN(C)CC1)C1CCCCC1` (stereo not given): the TGI in the assay on A549 NSCLC, with ACHN renal, in the assay on EKVX NSCLC, with HOP-62 NSCLC, in the assay on HOP-92 NSCLC and in the assay with NCI-H23 lung was more than 100 µM throughout. For the same compound, the TGI in the assay with SF-268 CNS, in the assay with SF-539 CNS, with SK-OV-3 ovarian and in the assay with SNB-19 CNS was more than 100 µM in each case.
Regarding `CC(=O)NC1C(OCc2ccccc2)OC(COC(=O)CCCCCNc2ccc([N+](=O)[O-])c3[nH]c4ccc(O)cc4c(=O)c23)C(O)C1OC(C)C(=O)N[C@@H](C)C(=O)N[C@H](CCC(=O)OCc1ccccc1)C(N)=O` (stereo not given in full), the TGI in the assay on A549 NSCLC came out at 6.92 µM; in the assay on ACHN renal it was 34.5 µM; in the assay with EKVX NSCLC it was 17.3 µM; in the assay on HOP-62 NSCLC it was 22.7 µM; in the assay with HOP-92 NSCLC, 3.61 µM; with NCI-H23 lung, 3.14 µM. Further, the TGI in the assay on SF-268 CNS was 9.41 µM; in the assay with SF-539 CNS it was 15.4 µM; in the assay with SK-OV-3 ovarian it was 10.7 µM; with SNB-19 CNS it was 19.6 µM.
As for `COc1cc2c(Nc3ccc(Br)cc3F)ncnc2cc1OCC1CCN(C)CC1`, the GI50 in the assay on A549 NSCLC was 3.32 µM and 4.63 µM; in the assay on ACHN renal, 0.471 µM and 0.556 µM; in the assay with EKVX NSCLC, 0.286 µM and 0.401 µM; in the assay with HOP-62 NSCLC, 3.24 µM and 5.81 µM; in the assay on HOP-92 NSCLC, 0.527 µM and 0.454 µM; in the assay on NCI-H23 lung, 9.57 µM and > 10 µM. Also, the GI50 in the assay on SF-268 CNS is 3.24 µM and 6.18 µM; with SF-539 CNS, 2.93 µM and 7.94 µM; in the assay with SK-OV-3 ovarian, 1.2 µM and 1.67 µM; with SNB-19 CNS, 4.7 µM and > 10 µM. Moreover, the TGI is 15.9 µM and > 10 µM in the assay on A549 NSCLC; 11.4 µM and > 10 µM with ACHN renal; 10.3 µM and > 10 µM in the assay on EKVX NSCLC; 14.6 µM and > 10 µM in the assay on HOP-62 NSCLC; 4.07 µM and 6.91 µM in the assay on HOP-92 NSCLC; 21.9 µM and > 10 µM with NCI-H23 lung. Moreover, the TGI is 15 µM and > 10 µM in the assay with SF-268 CNS; 9.49 µM and > 10 µM with SF-539 CNS; 7.06 µM and > 10 µM in the assay on SK-OV-3 ovarian; 18.3 µM and > 10 µM in the assay on SNB-19 CNS.
Regarding `CC1=C2C(=O)C(C)(C)C=C2C(=O)[C@](C)(O)C12CC2`, the TGI with A549 NSCLC, in the assay on ACHN renal, in the assay on EKVX NSCLC, in the assay with HOP-62 NSCLC, in the assay on HOP-92 NSCLC and in the assay with NCI-H23 lung was more than 1 µM throughout. Further, the TGI in the assay on SF-268 CNS, in the assay with SF-539 CNS, in the assay on SK-OV-3 ovarian and in the assay with SNB-19 CNS was more than 1 µM throughout.
On to `COc1cc2c(=O)n(CCCn3ccnc3)c3c4cc5c(cc4ccc3c2cc1OC)OCO5`, for which the GI50 is 1.96 µM in the assay on A549 NSCLC; 0.278 µM in the assay on ACHN renal; 9.72 µM in the assay on EKVX NSCLC; 0.305 µM in the assay with HOP-62 NSCLC; 0.831 µM in the assay with HOP-92 NSCLC; 0.599 µM with NCI-H23 lung. Besides, the GI50 is 0.448 µM with SF-268 CNS, 0.489 µM in the assay on SF-539 CNS, 0.443 µM in the assay on SK-OV-3 ovarian and 0.496 µM with SNB-19 CNS. Besides, the TGI in the assay on A549 NSCLC is more than 100 µM; with ACHN renal it was 1.36 µM; in the assay on EKVX NSCLC, more than 100 µM; with HOP-62 NSCLC it was 5.37 µM; in the assay with HOP-92 NSCLC it was 28.9 µM; in the assay with NCI-H23 lung, more than 100 µM. The TGI is 14.9 µM with SF-268 CNS, 1.8 µM in the assay with SF-539 CNS, 11.3 µM in the assay with SK-OV-3 ovarian and 42.8 µM in the assay with SNB-19 CNS.
Regarding `C[C@@H](Oc1cc(NS(=O)(=O)N2CCC2)nc(SCc2cccc(F)c2F)n1)[C@@H](O)CO`, the GI50 with A549 NSCLC, in the assay with ACHN renal, with EKVX NSCLC, in the assay on HOP-62 NSCLC, in the assay on HOP-92 NSCLC and with NCI-H23 lung was more than 100 µM each time. In addition, the GI50 with SF-268 CNS, with SF-539 CNS, with SK-OV-3 ovarian and with SNB-19 CNS was more than 100 µM in each case. Also, the TGI with A549 NSCLC, in the assay with ACHN renal, in the assay with EKVX NSCLC, in the assay with HOP-62 NSCLC, in the assay on HOP-92 NSCLC and in the assay on NCI-H23 lung was more than 100 µM throughout. Besides, the TGI in the assay on SF-268 CNS, with SF-539 CNS, in the assay on SK-OV-3 ovarian and in the assay with SNB-19 CNS was more than 100 µM in each case.
For `N=C1C(c2nc3ccccc3s2)=C(O)CN1c1ccc(Cl)cc1Cl`, the GI50 is 11.6 µM with A549 NSCLC; 13 µM in the assay on ACHN renal; 29.9 µM in the assay on EKVX NSCLC; 13.9 µM with HOP-62 NSCLC; 15.8 µM in the assay with HOP-92 NSCLC; 2.59 µM with NCI-H23 lung. Moreover, the GI50 was 89 µM with SF-268 CNS, 7.62 µM in the assay on SF-539 CNS, 32.2 µM in the assay with SK-OV-3 ovarian and 26.3 µM with SNB-19 CNS. The TGI was found to be 35.6 µM in the assay with A549 NSCLC; 28.8 µM in the assay with ACHN renal; 85.5 µM in the assay on EKVX NSCLC; 38 µM with HOP-62 NSCLC; 38.1 µM in the assay on HOP-92 NSCLC; 6.6 µM in the assay with NCI-H23 lung. For the same compound, the TGI in the assay with SF-268 CNS was more than 100 µM; with SF-539 CNS, 26.7 µM; in the assay on SK-OV-3 ovarian, more than 100 µM; in the assay with SNB-19 CNS, 80.9 µM.
With `Cc1cccc2c1NC(=O)[C@@]21[C@H](C(=O)c2ccccc2)[C@]2(C(=O)Nc3ccccc32)[C@H]2CCCN21`, the GI50 with A549 NSCLC is 58.9 µM; in the assay on ACHN renal, 19.6 µM; with EKVX NSCLC, 40.6 µM; with HOP-62 NSCLC, 26.7 µM; with HOP-92 NSCLC, 24.7 µM; in the assay on NCI-H23 lung, 47 µM. The GI50 is 30.8 µM in the assay on SF-268 CNS, 18.6 µM in the assay with SF-539 CNS, 43.3 µM with SK-OV-3 ovarian and 19.2 µM in the assay on SNB-19 CNS. For the same compound, the TGI with A549 NSCLC was more than 100 µM; in the assay on ACHN renal, 73 µM; in the assay on EKVX NSCLC, more than 100 µM; with HOP-62 NSCLC, more than 100 µM; with HOP-92 NSCLC, 59.1 µM; with NCI-H23 lung, more than 100 µM. Also, the TGI in the assay with SF-268 CNS is more than 100 µM; in the assay with SF-539 CNS, 48.9 µM; in the assay on SK-OV-3 ovarian it was more than 100 µM; in the assay on SNB-19 CNS, more than 100 µM.
